Experiments:
Experiment in all cases: NCI-60 screening, one-dose (10 µM) and five-dose, SRB
CCRF-CEM = type: cell-based, human; details: Homo sapiens, 10 μM, Leukemia, read-out: Growth percentage
K-562 = type: cell-based, human; details: Homo sapiens, K562, 10 μM; K-562, Leukemia; read-out: Growth percentage
MOLT-4 = type: cell-based, human; details: Homo sapiens; 10 μM; MOLT-4, Leukemia; read-out: Growth percentage
A549/ATCC = type: cell-based, human; details: Homo sapiens, 10 μM, Non-Small-Cell Lung Cancer, read-out: Growth percentage
EKVX = type: cell-based, human; details: Homo sapiens, 10 μM, Non-Small-Cell Lung Cancer, read-out: Growth percentage
HOP-92 = type: cell-based, human; details: Homo sapiens; 10 μM; HOP-92, Non-Small-Cell Lung Cancer; read-out: Growth percentage
NCI-H23 = type: cell-based, human; details: Homo sapiens; 10 μM; NCI-H23, Non-Small-Cell Lung Cancer; read-out: Growth percentage
HCC-2998 = type: cell-based, human; details: Homo sapiens; 10 μM; HCC-2998, Colon Cancer; read-out: Growth percentage
HCT-116 = type: cell-based, human; details: Homo sapiens
HCT-15 = type: cell-based, human; details: Homo sapiens; 10 μM; HCT-15, Colon Cancer; read-out: Growth percentage
HT29 = type: cell-based, human; details: Homo sapiens, HT-29; 10 μM; HT29, Colon Cancer; read-out: Growth percentage
KM12 = type: cell-based, human; details: Homo sapiens, KM12, 10 μM; KM12, Colon Cancer; read-out: Growth percentage
SF-295 = type: cell-based, human; details: Homo sapiens; 10 μM; SF-295, CNS Cancer; read-out: Growth percentage
SF-539 = type: cell-based, human; details: Homo sapiens, SF-539, 10 μM; SF-539, CNS Cancer; read-out: Growth percentage
SNB-75 = type: cell-based, human; details: Homo sapiens; 10 μM; SNB-75, CNS Cancer; read-out: Growth percentage
U251 = type: cell-based, human; details: Homo sapiens, U-251; 10 μM; U251, CNS Cancer; read-out: Growth percentage
MDA-MB-435 = type: cell-based; details: Homo sapiens, MDA-MB-435, read-out: Growth percentage, 10 μM; MDA-MB-435, Melanoma
NCI/ADR-RES = type: cell-based, human; details: Homo sapiens, 10 μM, Ovarian Cancer, read-out: Growth percentage
SK-OV-3 = type: cell-based, human; details: Homo sapiens; 10 μM; SK-OV-3, Ovarian Cancer; read-out: Growth percentage
A498 = type: cell-based; details: Homo sapiens, A498, 10 μM; A498, Renal Cancer; read-out: Growth percentage
ACHN = type: cell-based, human; details: Homo sapiens, 10 μM, Renal Cancer, read-out: Growth percentage
RXF 393 = type: cell-based; details: Homo sapiens; 10 μM; RXF 393, Renal Cancer; read-out: Growth percentage
TK-10 = type: cell-based, human; details: Homo sapiens; 10 μM; TK-10, Renal Cancer; read-out: Growth percentage
PC-3 = type: cell-based, human; details: Homo sapiens; 10 μM; PC-3, Prostate Cancer; read-out: Growth percentage
HS 578T = type: cell-based, human; details: Homo sapiens, 10 μM, Breast Cancer, read-out: Growth percentage
BT-549 = type: cell-based; details: Homo sapiens; 10 μM; BT-549, Breast Cancer; read-out: Growth percentage
MDA-MB-468 = type: cell-based, human; details: Homo sapiens, MDA-MB-468, 10 μM; MDA-MB-468, Breast Cancer; read-out: Growth percentage
Excerpt: Control cells Test cells FLD
available usually at NCI library.
An aliquot of frozen drug concentrate is […]

| SMILES | activity at 10 µM (CCRF-CEM) [%] | activity at 10 µM (K-562) [%] | activity at 10 µM (MOLT-4) [%] | activity at 10 µM (A549/ATCC) [%] | activity at 10 µM (EKVX) [%] | activity at 10 µM (HOP-92) [%] | activity at 10 µM (NCI-H23) [%] | activity at 10 µM (HCC-2998) [%] | activity at 10 µM (HCT-15) [%] | activity at 10 µM (HT29) [%] | activity at 10 µM (KM12) [%] | activity at 10 µM (SF-295) [%] | activity at 10 µM (SNB-75) [%] | activity at 10 µM (U251) [%] | activity at 10 µM (MDA-MB-435) [%] | activity at 10 µM (NCI/ADR-RES) [%] | activity at 10 µM (SK-OV-3) [%] | activity at 10 µM (A498) [%] | activity at 10 µM (ACHN) [%] | activity at 10 µM (RXF 393) [%] | other results |
| --- | --- | --- | --- | --- | --- | --- | --- | --- | --- | --- | --- | --- | --- | --- | --- | --- | --- | --- | --- | --- | --- |
| CC(=O)c1sc(SCC(=O)N2CCN(c3cc4c(cc3F)c(=O)c(C(=O)O)cn4C3CC3)CC2)nc1C [Compound 4a, 7-(4-(2-((5-Acetyl-4-methylthiazol-2-yl)thio)acetyl)piperazin-1-yl)-1-cyclopropyl-6-fluoro-4-oxo-1,4-dihydroquinoline-3-carboxylic Acid] | 96.2 | 123 | 102 | 104 | 104 | 105 | 106 | 96.6 | 102 | 104 | 102 | 94.2 | 79.2 | 114 | 99.4 | 108 | 101 | 104 | 98.3 | 91.7 | activity at 10 µM (HCT-116; HCT-116, 10 μM, HCT-116, Colon Cancer, read-out: Growth percentage): 113%; activity at 10 µM (SF-539): 86.4%; activity at 10 µM (TK-10): 97.9%; activity at 10 µM (PC-3): 98.8%; activity at 10 µM (HS 578T): 87.4%; activity at 10 µM (BT-549): 98.3%; activity at 10 µM (MDA-MB-468): 111% |
| COc1cccc(/C=C/C(=O)c2sc(SCC(=O)N3CCN(c4cc5c(cc4F)c(=O)c(C(=O)O)cn5C4CC4)CC3)nc2C)c1OC [Compound 4k, (E)-1-Cyclopropyl-7-(4-(2-((5-(3-(2,3-dimethoxyphenyl)acryloyl)-4-methylthiazol-2-yl)thio)acetyl)piperazin-1-yl)-6-fluoro-4-oxo-1,4-dihydroquinoline-3-carboxylic Acid] | 72 | 133 | 80.4 | 106 | 96.9 | 122 | 87.9 | 76.8 | 64.5 | 82.6 | 4.4 | 97.4 | 100 | 103 | 53.2 | 112 | 76.7 | 90.9 | 105 | 86.3 | IC50 (HCT-116; colon HCT-116): 340 nM; activity at 10 µM (TK-10): 105%; activity at 10 µM (PC-3): 93.5%; activity at 10 µM (HS 578T): 92.8%; activity at 10 µM (BT-549): 63.3%; activity at 10 µM (MDA-MB-468): 48.5% |

Source: publication PMC12655637, “Design, Synthesis, and Mechanistic Study of Novel Ciprofloxacin/Thiazole Chalcone Hybrids as Potential Anticancer Agents” (Pharmaceuticals, 2025)
